For one data set, the target named is cIAP2 (Homo sapiens, UniProt Q13489). Description: Immunoblotting (western blot) quantification of cIAP2 levels in MM.1S cells. As to conditions: for remaining activity at 0.1 µM: MM1.S.
A further data set deals with cIAP1 (Homo sapiens, UniProt Q13490). Description: Immunoblotting (western blot) quantification of cIAP1 levels in MM.1S cells. As to conditions: for remaining activity at 0.1 µM: MM1.S, 16 h. In general terms: In western blotting, separated proteins are transferred to a membrane and probed.
In another data set the target is VHL30 (Homo sapiens, UniProt P40337). Briefly: Immunoblotting (western blot) quantification of VHL30 levels in MM.1S cells. Conditions: MM1.S, 16 h, read-out: %remaining protein VHL30.
A further data set concerns the target XIAP (Homo sapiens, UniProt P98170). Briefly: Immunoblotting (western blot) quantification of XIAP levels in MM.1S cells. As to conditions: for remaining activity at 0.1 µM: MM1.S, 16 h.
For data set [1], the target named is T1, plasma protein (HSA column) (Homo sapiens, UniProt P02768).
T1 construct: purchased
Description: Plasma protein binding estimated by HPLC on a […] HSA column. As to conditions: CHIRALPAK HSA column (50 × 3 mm, 5 μm), estimated by an HPLC-based method, read-out: PPB (plasma protein binding) (converted). Type of data set: in vitro ADME. On the procedure:
Plasma protein binding (% PPB) was estimated by correlating the logarithmic retention times of the analytes on a […] HSA 50 × 3 mm, 5 μm column with the literature-known % PPB values (converted into log K values) of the following drugs: warfarin, ketoprofen, budesonide, nizatidine, indomethacin, acetylsalicylic acid, carbamazepine, piroxicam, nicardipine, and cimetidine (for details, see Valko et al.).[67] The samples were dissolved in MeCN/DMSO 9:1 to achieve a final concentration of 0.5 mg/mL. Mobile phase A was 50 mM ammonium acetate adjusted to pH 7.4 with ammonia solution, while mobile phase B was iPrOH. The flow rate was set to 1.0 mL/min, the UV detector was set to 254 nm, and the column temperature was kept at 30 °C. After injecting 2 μL of the sample, a linear gradient from 100% A to 30% iPrOH in 5.4 min was applied. From 5.4 to 18 min, 30% iPrOH was kept, followed by switching back to 100% A in 1.0 min and a re-equilibration time of 6 min. With the aid of the calibration line (R^2 = 0.96), the log K values of new substances were calculated and converted to their % PPB values.

A short description of data set [2]: Log D7.4 measurement by chromatographic (fast-gradient HPLC) method. Conditions: for chromatographic logD: pH 7.4.
Description: The system was calibrated by plotting the retention times of six different drugs (atenolol, metoprolol, labetalol, diltiazem, triphenylene, and permethrin) versus their literature-known log D7.4 in a calibration line (R^2 = 0.99). Subsequently, the mean retention times of the analytes were taken to calculate their log D7.4 values with the aid of the calibration line. At least two independent measurements of each analyte were performed.
The target of the next data set is CRBN (Homo sapiens, UniProt Q96SW2). Briefly: Immunoblotting (western blot) quantification of CRBN levels in MM.1S cells. Conditions: for remaining activity at 0.1 µM: MM1.S, 16 h, read-out: %remaining protein CRBN.
The next data set deals with IKZF3. Description: Immunoblotting (western blot) quantification of IKZF3 levels in MM.1S cells. Conditions: for %remaining protein IKZF3: 16 h treatment at 0.1 μM, normalized to loading control and DMSO.
Data set [3] relates to IAPs (cIAP1, cIAP2, XIAP). Description: Immunoblotting of IAPs in MM.1S cells, overall degradation profile, time course and washout. Type of data set: cell-based. Conditions: 16 h, western blot, concentration (10 nM to 1 μM). On the procedure: Next, we examined the persistence of IAP degradation in MM.1S cells after a single exposure to 1 μM of 9 and subsequent removal of the compound. […] The reliance on CRL2^VHL was assessed with a neddylation inhibitor MLN4924, which blocks the activity of CRLs (Figure S13A).

[4] abbreviates: 16 h, read-out: %remaining protein cIAP2.
Where [5] appears, read: read-out: %remaining protein cIAP1.
The mark [6] stands for this setting: read-out: %remaining protein XIAP.
Where [7] appears, read: 16 h, read-out: %remaining protein cIAP2, MM.1S cells, 16 h treatment at 0.1 μM, normalized to loading control and DMSO.
Where [8] appears, read: read-out: %remaining protein cIAP1, MM.1S cells, 16 h treatment at 0.1 μM, normalized to loading control and DMSO.
Where [9] appears, read: read-out: %remaining protein XIAP, MM.1S cells, 16 h treatment at 0.1 μM, normalized to loading control and DMSO.
Setting [10] is: MM.1S cells, 16 h treatment at 0.1 μM, normalized to loading control and DMSO.

Where two headings read alike, the source gives them in different places.

One may read the chromatographic logD as lipophilicity estimated from chromatographic retention. Read a high chromatographic logD as higher lipophilicity.

cIAP2, sequence (Q13489 whole entry): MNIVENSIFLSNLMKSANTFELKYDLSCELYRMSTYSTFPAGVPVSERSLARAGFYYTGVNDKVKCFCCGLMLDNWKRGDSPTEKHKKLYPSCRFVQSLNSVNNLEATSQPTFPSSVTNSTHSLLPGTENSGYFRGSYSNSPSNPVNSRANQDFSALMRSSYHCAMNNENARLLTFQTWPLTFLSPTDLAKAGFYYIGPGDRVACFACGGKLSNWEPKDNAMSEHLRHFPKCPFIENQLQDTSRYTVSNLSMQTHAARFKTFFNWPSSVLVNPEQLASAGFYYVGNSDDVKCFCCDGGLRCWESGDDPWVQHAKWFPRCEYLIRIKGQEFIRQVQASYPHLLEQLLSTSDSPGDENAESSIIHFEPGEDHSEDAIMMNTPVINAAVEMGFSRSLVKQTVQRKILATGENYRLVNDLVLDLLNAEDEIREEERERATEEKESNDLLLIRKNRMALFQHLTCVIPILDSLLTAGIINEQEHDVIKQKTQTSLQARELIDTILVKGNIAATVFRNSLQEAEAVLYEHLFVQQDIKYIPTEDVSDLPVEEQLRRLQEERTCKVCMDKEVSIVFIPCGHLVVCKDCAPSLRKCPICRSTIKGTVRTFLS
cIAP1, sequence (Q13490 whole entry): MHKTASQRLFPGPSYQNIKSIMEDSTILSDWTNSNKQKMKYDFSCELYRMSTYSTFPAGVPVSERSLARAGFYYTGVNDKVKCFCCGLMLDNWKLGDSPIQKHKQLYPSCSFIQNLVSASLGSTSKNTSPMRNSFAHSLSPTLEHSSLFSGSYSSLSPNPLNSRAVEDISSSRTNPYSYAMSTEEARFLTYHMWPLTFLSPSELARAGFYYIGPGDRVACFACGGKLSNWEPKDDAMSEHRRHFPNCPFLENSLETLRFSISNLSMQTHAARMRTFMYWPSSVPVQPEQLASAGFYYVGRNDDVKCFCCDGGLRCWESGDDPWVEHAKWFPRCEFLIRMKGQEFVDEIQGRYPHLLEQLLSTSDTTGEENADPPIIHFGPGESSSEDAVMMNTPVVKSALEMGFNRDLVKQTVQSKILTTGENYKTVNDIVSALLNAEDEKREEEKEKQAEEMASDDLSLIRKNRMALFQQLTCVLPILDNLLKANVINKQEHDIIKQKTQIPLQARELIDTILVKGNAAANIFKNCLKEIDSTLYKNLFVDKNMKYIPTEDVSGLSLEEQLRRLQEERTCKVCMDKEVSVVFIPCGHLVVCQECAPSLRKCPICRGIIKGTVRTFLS
VHL30, sequence (P40337 whole entry): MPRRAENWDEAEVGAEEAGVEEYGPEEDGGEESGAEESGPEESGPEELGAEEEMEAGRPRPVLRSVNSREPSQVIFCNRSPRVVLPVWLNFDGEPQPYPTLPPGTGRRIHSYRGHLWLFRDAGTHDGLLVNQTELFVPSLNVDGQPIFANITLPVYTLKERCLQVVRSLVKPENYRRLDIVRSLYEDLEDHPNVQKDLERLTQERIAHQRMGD
CRBN, sequence (Q96SW2 whole entry): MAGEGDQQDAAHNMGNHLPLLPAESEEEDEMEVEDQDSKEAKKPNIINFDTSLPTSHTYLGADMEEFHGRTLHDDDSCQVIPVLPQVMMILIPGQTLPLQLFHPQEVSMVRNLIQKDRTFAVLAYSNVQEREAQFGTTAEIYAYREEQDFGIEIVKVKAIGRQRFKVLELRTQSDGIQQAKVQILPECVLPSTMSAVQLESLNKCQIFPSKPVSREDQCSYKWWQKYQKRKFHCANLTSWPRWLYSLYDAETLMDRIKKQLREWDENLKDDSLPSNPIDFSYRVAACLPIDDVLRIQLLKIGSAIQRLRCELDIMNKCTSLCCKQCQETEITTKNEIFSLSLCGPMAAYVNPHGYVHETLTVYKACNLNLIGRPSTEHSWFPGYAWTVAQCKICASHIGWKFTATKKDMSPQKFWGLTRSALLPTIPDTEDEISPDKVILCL
XIAP, sequence (P98170 whole entry): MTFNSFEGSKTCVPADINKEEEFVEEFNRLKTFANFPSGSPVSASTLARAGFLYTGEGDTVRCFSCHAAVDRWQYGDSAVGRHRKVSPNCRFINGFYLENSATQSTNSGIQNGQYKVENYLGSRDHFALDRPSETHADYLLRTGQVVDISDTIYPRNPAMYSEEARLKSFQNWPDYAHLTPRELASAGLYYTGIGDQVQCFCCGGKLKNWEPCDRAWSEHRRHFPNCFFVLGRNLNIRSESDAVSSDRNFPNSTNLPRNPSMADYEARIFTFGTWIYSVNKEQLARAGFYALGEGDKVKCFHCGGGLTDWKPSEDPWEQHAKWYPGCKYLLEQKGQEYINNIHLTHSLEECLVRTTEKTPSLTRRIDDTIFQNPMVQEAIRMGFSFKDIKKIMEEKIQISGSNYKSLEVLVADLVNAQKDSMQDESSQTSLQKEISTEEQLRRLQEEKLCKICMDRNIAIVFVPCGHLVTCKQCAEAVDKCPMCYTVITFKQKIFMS
T1 sequence (P02768 25-609): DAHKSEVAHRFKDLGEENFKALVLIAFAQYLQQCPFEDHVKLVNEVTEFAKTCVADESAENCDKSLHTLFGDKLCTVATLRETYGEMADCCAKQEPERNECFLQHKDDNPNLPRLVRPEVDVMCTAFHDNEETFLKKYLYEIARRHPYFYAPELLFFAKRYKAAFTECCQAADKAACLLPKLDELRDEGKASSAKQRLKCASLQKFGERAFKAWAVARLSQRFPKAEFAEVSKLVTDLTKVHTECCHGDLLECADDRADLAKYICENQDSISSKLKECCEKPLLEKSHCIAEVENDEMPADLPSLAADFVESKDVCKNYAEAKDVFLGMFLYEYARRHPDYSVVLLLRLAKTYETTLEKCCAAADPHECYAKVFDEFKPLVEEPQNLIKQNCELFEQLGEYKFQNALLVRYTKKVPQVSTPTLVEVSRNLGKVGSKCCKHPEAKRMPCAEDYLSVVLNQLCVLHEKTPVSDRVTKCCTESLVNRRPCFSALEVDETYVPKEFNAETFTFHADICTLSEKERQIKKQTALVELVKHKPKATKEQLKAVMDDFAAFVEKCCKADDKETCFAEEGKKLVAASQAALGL
Description for CRBN: (§1) To evaluate the capability of our panel of hetero-PROTACs for E3 ligase degradation, VHL19, VHL30, CRBN, cIAP1, cIAP2, and XIAP levels were quantified by western blot analyses. […] SDS-PAGE was performed, and proteins were then transferred onto PVDF membranes. Blotted membranes were blocked with 5% milk in Tris-buffered saline/Tween20 (TBST). Primary antibodies were diluted in 5% BSA in TBST, and incubations were performed overnight at 4 °C. Secondary HRP-conjugated antibodies diluted in 5% milk were incubated for 1 h at room temperature. Detection of proteins on PVDF was carried out using the WesternBright ECL HRP substrate or the WesternBright Sirius HRP substrate (Advansta, San Jose, USA) and imaged with LAS 4000× (Fujifilm). Membranes were subjected to 10 min incubation with Restore Western Blot Stripping Buffer (Thermo Fisher Scientific, Waltham, USA), followed by TBST washes. After brief re-activation with methanol, the membranes were blocked, and further probing of proteins was carried out.
(§2) Quantification of blots was performed using ImageJ software (National Institutes of Health).
Description for IKZF3: as §1, §2
Description for VHL30: as §1, §2

`CN[C@@H](C)C(=O)N[C@H](C(=O)N1C[C@@H](Oc2cccc(OCCOCCOCCOc3cc(-c4scnc4C)ccc3CNC(=O)[C@@H]3C[C@@H](O)CN3C(=O)[C@H](C(C)C)N3Cc4ccccc4C3=O)c2)C[C@H]1C(=O)N[C@@H]1CCCc2ccccc21)C1CCCCC1` [PROTAC 15, (2S,4S)-1-((S)-2-Cyclohexyl-2-((S)-2-(methylamino)propanamido)acetyl)-4-(3-(2-(2-(2-(2-(((2S,4R)-4-hydroxy-1-((S)-3-methyl-2-(1-oxoisoindolin-2-yl)butanoyl)pyrrolidine-2-carboxamido)methyl)-5-(4-methylthiazol-5-yl)phenoxy)ethoxy)ethoxy)ethoxy)phenoxy)-N-((R)-1,2,3,4-tetrahydronaphthalen-1-yl)pyrrolidine-2-carboxamide]: the remaining activity at 0.1 µM on cIAP2 (setting [4]) was 32%; on cIAP1 (setting [5]), 3%; on VHL30, 51%; on XIAP (setting [6]), 3%. Besides, the fraction unbound at 0.5 mg/mL in data set [1] was 0.05. Also, the chromatographic logD in data set [2] was 3.4.
As to `CN[C@@H](C)C(=O)N[C@H](C(=O)N1C[C@@H](Oc2cccc(OCCOCCOCCOCCOc3cc(-c4scnc4C)ccc3CNC(=O)[C@@H]3C[C@@H](O)CN3C(=O)[C@H](C(C)C)N3Cc4ccccc4C3=O)c2)C[C@H]1C(=O)N[C@@H]1CCCc2ccccc21)C1CCCCC1` [PROTAC 16, (2S,4S)-1-((S)-2-Cyclohexyl-2-((S)-2-(methylamino)propanamido)acetyl)-4-(3-(2-(2-(2-(2-(2-(((2S,4R)-4-hydroxy-1-((S)-3-methyl-2-(1-oxoisoindolin-2-yl)butanoyl)pyrrolidine-2-carboxamido)methyl)-5-(4-methylthiazol-5-yl)phenoxy)ethoxy)ethoxy)ethoxy)ethoxy)phenoxy)-N-((R)-1,2,3,4-tetrahydronaphthalen-1-yl)pyrrolidine-2-carboxamide], the remaining activity at 0.1 µM at cIAP2 (setting [4]) amounted to 31%; at cIAP1 (setting [5]), 3%; on VHL30 it was 41%; on XIAP (setting [6]), 2%. Further, the fraction unbound at 0.5 mg/mL in data set [1] was 0.05. In data set [2], this molecule registered a chromatographic logD of 3.3.
Take `CN[C@@H](C)C(=O)N[C@H](C(=O)N1C[C@@H](Oc2cccc(OCCCCCCOCCCCCCOCCOc3cc(-c4scnc4C)ccc3CNC(=O)[C@@H]3C[C@@H](O)CN3C(=O)[C@H](C(C)C)N3Cc4ccccc4C3=O)c2)C[C@H]1C(=O)N[C@@H]1CCCc2ccccc21)C1CCCCC1` [PROTAC 17, (2S,4S)-1-((S)-2-Cyclohexyl-2-((S)-2-(methylamino)propanamido)acetyl)-4-(3-((6-((6-(2-(2-(((2S,4R)-4-hydroxy-1-((S)-3-methyl-2-(1-oxoisoindolin-2-yl)butanoyl)pyrrolidine-2-carboxamido)methyl)-5-(4-methylthiazol-5-yl)phenoxy)ethoxy)hexyl)oxy)hexyl)oxy)phenoxy)-N-((R)-1,2,3,4-tetrahydronaphthalen-1-yl)pyrrolidine-2-carboxamide]: the remaining activity at 0.1 µM was found to be 31% on cIAP2 (setting [4]), 3% at cIAP1 (setting [5]), 81% at VHL30 and 1% at XIAP (setting [6]). In [1], the fraction unbound at 0.5 mg/mL is 0.03. In data set [2], this molecule showed a chromatographic logD of 5.2.
As to `CN[C@@H](C)C(=O)N[C@H](C(=O)N1C[C@@H](Oc2cccc(OCCCCCNc3cccc4c3C(=O)N(C3CCC(=O)NC3=O)C4=O)c2)C[C@H]1C(=O)N[C@@H]1CCCc2ccccc21)C1CCCCC1` (stereo partly drawn) [PROTAC 20, (2S,4S)-1-((S)-2-Cyclohexyl-2-((S)-2-(methylamino)propanamido)acetyl)-4-(3-((5-((2-(2,6-dioxopiperidin-3-yl)-1,3-dioxoisoindolin-4-yl)amino)pentyl)oxy)phenoxy)-N-((R)-1,2,3,4-tetrahydronaphthalen-1-yl)pyrrolidine-2-carboxamide], the remaining activity at 0.1 µM at cIAP2 (setting [7]) is 34%; on CRBN, 95%; at cIAP1 (setting [8]), 6%; at XIAP (setting [9]), 8%. The “%remaining protein IKZF3” value in the data set on IKZF3 is 89%. Moreover, in data set [1], the fraction unbound at 0.5 mg/mL was 0.04. For the same molecule, the chromatographic logD in [2] worked out at 4.6.
In the case of `CN[C@@H](C)C(=O)N[C@H](C(=O)N1C[C@@H](Oc2cccc(OCCOCCOCCNc3cccc4c3C(=O)N(C3CCC(=O)NC3=O)C4=O)c2)C[C@H]1C(=O)N[C@@H]1CCCc2ccccc21)C1CCCCC1` (stereo partly drawn) [PROTAC 23, (2S,4S)-1-((S)-2-Cyclohexyl-2-((S)-2-(methylamino)propanamido)acetyl)-4-(3-(2-(2-(2-((2-(2,6-dioxopiperidin-3-yl)-1,3-dioxoisoindolin-4-yl)amino)ethoxy)ethoxy)ethoxy)phenoxy)-N-((R)-1,2,3,4-tetrahydronaphthalen-1-yl)pyrrolidine-2-carboxamide], the remaining activity at 0.1 µM is 11% at cIAP2 (setting [7]), 85% at CRBN, 4% on cIAP1 (setting [8]) and 3% on XIAP (setting [9]). Moreover, the “%remaining protein IKZF3” value in the data set with IKZF3 is 95%. The fraction unbound at 0.5 mg/mL in data set [1] is 0.05. Further, the chromatographic logD in data set [2] came to 3.9.
`CN[C@@H](C)C(=O)N[C@H](C(=O)N1C[C@@H](Oc2cccc(OCCCCCOCCCCCOCCCCCCNc3cccc4c3C(=O)N(C3CCC(=O)NC3=O)C4=O)c2)C[C@H]1C(=O)N[C@@H]1CCCc2ccccc21)C1CCCCC1` (stereo partly drawn) [PROTAC 26, (2S,4S)-1-((S)-2-Cyclohexyl-2-((S)-2-(methylamino)propanamido)acetyl)-4-(3-((5-((5-((6-((2-(2,6-dioxopiperidin-3-yl)-1,3-dioxoisoindolin-4-yl)amino)hexyl)oxy)pentyl)oxy)pentyl)oxy)phenoxy)-N-((R)-1,2,3,4-tetrahydronaphthalen-1-yl)pyrrolidine-2-carboxamide]: the remaining activity at 0.1 µM on cIAP2 (setting [4]) is 16%; on CRBN, 95%; on cIAP1 (setting [5]), 10%; on XIAP (setting [6]), 2%. In addition, the “IKZF3 degradation (in words)” value in the data set on IKZF3 (16 h, 1 μM) is reported as “substantial IKZF3 degradation at 1 μM”. In addition, the “%remaining protein IKZF3” value in the data set on IKZF3 came out at 90%. Also, the “IAP degradation profile (in words)” value in [3] is reported as “pronounced pan-IAP depletion”. For the same molecule, in data set [2], the chromatographic logD was found to be 6.5.
Turning to `CC[C@H](NC(=O)[C@H](C)NC)C(=O)N1C[C@@H](O)C[C@H]1Cc1c(-c2[nH]c3cc(F)ccc3c2C[C@@H]2C[C@H](O)CN2C(=O)[C@H](CC)NC(=O)[C@H](C)NC)[nH]c2cc(F)ccc12` [birinapant, reference compound], the “cIAP2 degradation (in words)” value on cIAP2 (MM.1S cells, 16 h, western blot, 0.1 or 1 μM) was “substantial degradation”. Further, the “IAP degradation profile (in words)” value in [3] is given as “potent cIAP autodegradation”. Besides, the fraction unbound at 0.5 mg/mL in data set [1] is 0.05. The same molecule displayed a chromatographic logD in data set [2] of 3.4.
For “(2S,4S)-1-((S)-2-Cyclohexyl-2-((S)-2-(methylamino)propanamido)acetyl)-4-(3-((8-((2-(2,6-dioxopiperidin-3-yl)-1,3-dioxoisoindolin-4-yl)amino)octyl)oxy)phenoxy)-N-((R)-1,2,3,4-tetrahydronaphthalen-1-yl)pyrrolidine-2-carboxamide [PROTAC 21]”, at cIAP2 (setting [10]), the “%remaining protein cIAP2” value is recorded as 14%. The “%remaining protein CRBN” value on CRBN (setting [10]) is 90%. Also, at cIAP1 (setting [10]), the “%remaining protein cIAP1” value is on record as 5%. Also, the “%remaining protein XIAP” value at XIAP (setting [10]) was 4%. For the same molecule, the “%remaining protein IKZF3” value with IKZF3 amounted to 95%. In data set [2] (pH 7.4, fast-gradient HPLC method), the “logD (experimental partition coefficient, elog D7.4)” value turned out to be 5.7.

The record behind these values is PMC10108347, “Heterobifunctional Ligase Recruiters Enable pan-Degradation of Inhibitor of Apoptosis Proteins” (Journal of Medicinal Chemistry, 2023).
